From patent US6258547A, “Nucleic acid encoding amp-activated protein kinase” (Zeneca Limited, priority 1993, dated 2001)

Assays:
[1] = system: AMP-activated protein kinase (AMPK) purified from rat liver; conditions: cited from earlier work
[2] = target: T1, Saccharomyces cerevisiae SNF1 protein kinase, wild type (Saccharomyces cerevisiae, UniProt P06782+P12904); assay: SAMS peptide phosphorylation assay in yeast extracts; type: biochemical; conditions: over a range of AMP concentrations; data not shown
T1 construct: We were able to detect kinase activity using this assay in wild type yeast extracts; endogenous in cells; host or cells: wild type Saccharomyces cerevisiae extract
T1 sequence (P06782 1-633): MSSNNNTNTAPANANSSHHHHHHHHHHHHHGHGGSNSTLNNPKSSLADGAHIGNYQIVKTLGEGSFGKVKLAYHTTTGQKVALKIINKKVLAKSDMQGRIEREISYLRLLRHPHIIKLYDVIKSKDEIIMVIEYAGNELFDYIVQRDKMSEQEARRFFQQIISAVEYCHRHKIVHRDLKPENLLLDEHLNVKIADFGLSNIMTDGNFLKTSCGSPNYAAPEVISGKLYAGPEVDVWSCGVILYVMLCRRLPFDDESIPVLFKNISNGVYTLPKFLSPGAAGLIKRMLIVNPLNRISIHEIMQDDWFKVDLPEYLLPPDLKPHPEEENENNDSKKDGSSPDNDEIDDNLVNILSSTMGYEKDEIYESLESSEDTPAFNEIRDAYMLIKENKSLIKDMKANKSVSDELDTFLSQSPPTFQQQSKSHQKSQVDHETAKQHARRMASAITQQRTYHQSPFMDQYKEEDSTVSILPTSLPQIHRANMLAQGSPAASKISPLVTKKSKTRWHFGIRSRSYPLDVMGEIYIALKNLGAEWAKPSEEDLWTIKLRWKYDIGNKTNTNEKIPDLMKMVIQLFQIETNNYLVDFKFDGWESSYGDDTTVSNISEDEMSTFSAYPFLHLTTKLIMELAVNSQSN
T1 sequence (P12904 1-322): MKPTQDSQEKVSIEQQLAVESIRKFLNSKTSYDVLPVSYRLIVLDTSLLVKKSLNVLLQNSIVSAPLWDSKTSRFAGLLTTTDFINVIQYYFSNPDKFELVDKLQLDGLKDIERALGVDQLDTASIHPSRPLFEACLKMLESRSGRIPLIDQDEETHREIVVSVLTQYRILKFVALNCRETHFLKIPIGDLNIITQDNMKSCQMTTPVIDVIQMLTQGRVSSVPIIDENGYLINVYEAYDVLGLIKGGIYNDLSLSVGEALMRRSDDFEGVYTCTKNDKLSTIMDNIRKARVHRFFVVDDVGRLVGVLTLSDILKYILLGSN
Description: In Saccharomyces cerevisiae SNF1 protein kinase activity is essential for release of genes from glucose repression. […] The amino acid sequences of SNF1 and AMPK are 46% identical. We investigated whether SNF1 and AMPK shared any functional similarity in addition to their primary sequence homology. […] We believe that this polypeptide is likely to be involved in the regulation of mammalian AMPK in the same way that SNF4 regulates SNF1 function in yeast. […] The apparent Km of SAMS peptide for SNF1 (20 μM) was similar to that of the AMPK (data not shown).

[3] = system: AMP-activated protein kinase (AMPK) partially purified from rat liver (DEAE-Sepharose fraction); type: biochemical; conditions: 200 µM

stimulation of AMPK activity by AMP [3]: approximately 3 fold
SMILES: Nc1ncnc2c1ncn2[C@@H]1O[C@H](COP(=O)(O)O)[C@@H](O)[C@H]1O [AMP]
activation of AMPK by AMP [1]: approximately 5 fold
activation of SNF1 by AMP [2]: unable to detect any significant activation
